Structures are written as SMILES.

The target in this test is T1, human Orexin-2 receptor (Homo sapiens, UniProt O43614).
T1 construct: expressed in transfected cells; host or cells: HEK293 cells (transient transfection, Genejuice); membranes
T1 sequence (O43614 1-444): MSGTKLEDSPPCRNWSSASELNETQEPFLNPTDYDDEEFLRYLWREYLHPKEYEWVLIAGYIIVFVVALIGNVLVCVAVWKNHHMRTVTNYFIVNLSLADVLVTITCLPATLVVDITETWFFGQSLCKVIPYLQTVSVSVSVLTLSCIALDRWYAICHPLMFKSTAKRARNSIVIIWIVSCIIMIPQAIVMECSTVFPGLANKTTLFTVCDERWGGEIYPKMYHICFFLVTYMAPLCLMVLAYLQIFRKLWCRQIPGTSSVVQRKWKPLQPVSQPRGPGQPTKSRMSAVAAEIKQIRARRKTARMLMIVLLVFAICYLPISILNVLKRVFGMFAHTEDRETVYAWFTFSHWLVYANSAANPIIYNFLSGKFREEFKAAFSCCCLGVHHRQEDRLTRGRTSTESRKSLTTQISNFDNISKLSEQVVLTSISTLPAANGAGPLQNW
As to the kind of experiment: 3H-EMPA radioligand binding assay. The note with it: 3H-EMPA displacement, membranes of HEK293 cells transfected with human Orexin-2 receptor; KI by Cheng-Prussoff; read-out: OX2 pKi ave (converted). A digest of the protocol:
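Membranes from HEK293 cells transiently transfected with human orexin-2 receptor cDNA, assayed with [3H]EMPA. Bound ligand collected on PEI-treated GF/B filters and counted by scintillation; IC50 from inhibition curves, Ki by Cheng-Prusoff.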
For `COc1ccc(N2C(=O)N(Cc3ncc(Br)cc3F)c3ccccc3S2(=O)=O)cc1OC` [Example 89, 4-[(5-Bromo-3-fluoropyridin-2-yl)methyl]-2-(3,4-dimethoxyphenyl)-2H-1,2,4-benzothiadiazin-3(4H)-one 1,1-dioxide], the Ki is 38.9 nM.

For `COc1ccc(N2C(=O)N(Cc3c(Cl)cncc3Cl)c3ccccc3S2(=O)=O)cc1OC` [Example 90, 4-[(3,5-Dichloropyridin-4-yl)methyl]-2-(3,4-dimethoxyphenyl)-2H-1,2,4-benzothiadiazin-3(4H)-one 1,1-dioxide], the Ki is 3.02 nM.

Regarding `COc1ccc(N2C(=O)N(Cc3c(F)cccc3Cl)c3ccncc3S2(=O)=O)cc1OC` [Example 91, 4-(2-Chloro-6-fluorobenzyl)-2-(3,4-dimethoxyphenyl)-2H-pyrido[4,3-e][1,2,4]thiadiazin-3(4H)-one 1,1-dioxide], the Ki is 38 nM.

Take `COc1ccc(N2C(=O)N(Cc3ccc(Cl)cc3F)c3ccncc3S2(=O)=O)cc1OC` [Example 92, 4-(4-Chloro-2-fluorobenzyl)-2-(3,4-dimethoxyphenyl)-2H-pyrido[4,3-e][1,2,4]thiadiazin-3(4H)-one 1,1-dioxide]: the Ki was 741 nM.

In the case of `COc1ccc(N2C(=O)N(Cc3c(F)cc(F)cc3F)c3ncccc3S2(=O)=O)cc1OC` [Example 93, 2-(3,4-Dimethoxyphenyl)-4-(2,4,6-trifluorobenzyl)-2H-pyrido[2,3-e][1,2,4]thiadiazin-3(4H)-one 1,1-dioxide], the Ki is 1.2 nM.

For the molecule `COc1ccc(N2C(=O)N(Cc3c(F)cccc3Cl)c3ncccc3S2(=O)=O)cc1OC` [Example 94, 4-(2-Chloro-6-fluorobenzyl)-2-(3,4-dimethoxyphenyl)-2H-pyrido[2,3-e][1,2,4]thiadiazin-3(4H)-one 1,1-dioxide], the Ki is 0.776 nM.

Consider `COc1cc(F)c(CN2C(=O)N(c3ccc(OC)c(OC)c3)S(=O)(=O)c3cccnc32)c(F)c1` [Example 95, 4-(2,6-Difluoro-4-methoxybenzyl)-2-(3,4-dimethoxyphenyl)-2H-pyrido[2,3-e][1,2,4]thiadiazin-3(4H)-one 1,1-dioxide], for which the Ki is 0.129 nM.

For the molecule `COc1ccc(N2C(=O)N(Cc3ncc(F)cc3F)c3ncccc3S2(=O)=O)cc1OC` [Example 96, 4-[(3,5-Difluoropyridin-2-yl)methyl]-2-(3,4-dimethoxyphenyl)-2H-pyrido[2,3-e][1,2,4]thiadiazin-3(4H)-one 1,1-dioxide], the Ki was 13.2 nM.

In the case of `COc1ccc(N2C(=O)N(Cc3c(F)cc(Cl)cc3F)c3ncccc3S2(=O)=O)cc1OC` [Example 97, 4-(4-Chloro-2,6-difluorobenzyl)-2-(3,4-dimethoxyphenyl)-2H-pyrido[2,3-e][1,2,4]thiadiazin-3(4H)-one 1,1-dioxide], the Ki is 0.661 nM.

`COc1cc(N2C(=O)N(Cc3c(F)cc(F)cc3F)c3ncccc3S2(=O)=O)cc(OC)n1` [Example 98, 2-(2,6-Dimethoxypyridin-4-yl)-4-(2,4,6-trifluorobenzyl)-2H-pyrido[2,3-e][1,2,4]thiadiazin-3(4H)-one 1,1-dioxide]: the Ki is 1.48 nM.

As to `COc1ccc(N2C(=O)N(Cc3c(F)cc(F)cc3F)c3ncccc3S2(=O)=O)nc1OC` [Example 99, 2-(5,6-Dimethoxypyridin-2-yl)-4-(2,4,6-trifluorobenzyl)-2H-pyrido[2,3-e][1,2,4]thiadiazin-3(4H)-one 1,1-dioxide], the Ki is 1.55 nM.

As for `Cc1ccc(N2C(=O)N(Cc3c(F)cc(F)cc3F)c3ncccc3S2(=O)=O)cc1C` [Example 101, 2-(3,4-Dimethylphenyl)-4-(2,4,6-trifluorobenzyl)-2H-pyrido[2,3-e][1,2,4]thiadiazin-3(4H)-one 1,1-dioxide], the Ki is 3.47 nM.

Consider `COc1cc(F)c(CN2C(=O)N(c3ccc(C)c(C)c3)S(=O)(=O)c3cccnc32)c(F)c1` [Example 102, 4-(2,6-Difluoro-4-methoxybenzyl)-2-(3,4-dimethylphenyl)-2H-pyrido[2,3-e][1,2,4]thiadiazin-3(4H)-one 1,1-dioxide], for which the Ki is 0.776 nM.

Regarding `Cc1cc(C)cc(N2C(=O)N(Cc3c(F)cc(F)cc3F)c3ncccc3S2(=O)=O)c1` [Example 103, 2-(3,5-Dimethylphenyl)-4-(2,4,6-trifluorobenzyl)-2H-pyrido[2,3-e][1,2,4]thiadiazin-3(4H)-one 1,1-dioxide], the Ki was 4.27 nM.

For `COc1ccc(N2C(=O)N(Cc3c(F)cc(F)cc3OC)c3ccccc3S2(=O)=O)cc1OC` [Example 104, 4-(2,4-Difluoro-6-methoxybenzyl)-2-(3,4-dimethoxyphenyl)-2H-1,2,4-benzothiadiazin-3(4H)-one 1,1-dioxide], the Ki was 7.08 nM.

In the case of `COc1ccc(N2C(=O)N(Cc3c(F)cc(F)cc3F)c3ccccc3S2(=O)=O)cc1OC` [Example 105, 2-(3,4-Dimethoxyphenyl)-4-(2,4,6-trifluorobenzyl)-2H-1,2,4-benzothiadiazin-3(4H)-one 1,1-dioxide], the Ki is 1.95 nM.

As to `COc1ccc(N2C(=O)N(Cc3c(F)cc(C)cc3Cl)c3ccccc3S2(=O)=O)cc1OC` [Example 106, 4-(2-Chloro-6-fluoro-4-methylbenzyl)-2-(3,4-dimethoxyphenyl)-2H-1,2,4-benzothiadiazin-3(4H)-one 1,1-dioxide], the Ki is 0.741 nM.

`COc1ccc(N2C(=O)N(Cc3c(F)cc(F)cc3Cl)c3ccccc3S2(=O)=O)cc1OC` [Example 107, 4-(2-Chloro-4,6-difluorobenzyl)-2-(3,4-dimethoxyphenyl)-2H-1,2,4-benzothiadiazin-3(4H)-one 1,1-dioxide]: the Ki is 1.05 nM.

On to `COc1cc(F)c(CN2C(=O)N(c3ccc(OC)c(OC)c3)S(=O)(=O)c3ccccc32)c(F)c1` [Example 108, 2-(3,4-Dimethoxyphenyl)-4-(2,6-difluoro-4-methoxybenzyl)-2H-1,2,4-benzothiadiazin-3(4H)-one 1,1-dioxide], for which the Ki was 0.468 nM.

On to `COc1cc(F)c(CN2C(=O)N(c3cccc(SC)c3)S(=O)(=O)c3ccccc32)c(F)c1` [Example 109, 4-(2,6-Difluoro-4-methoxybenzyl)-2-[3-(methylsulfanyl)phenyl]-2H-1,2,4-benzothiadiazin-3(4H)-one 1,1-dioxide], for which the Ki was 3.24 nM.

For the molecule `CSc1cccc(N2C(=O)N(Cc3c(F)cc(F)cc3Cl)c3ccccc3S2(=O)=O)c1` [Example 110, 4-(2-Chloro-4,6-difluorobenzyl)-2-[3-(methylsulfanyl)phenyl]-2H-1,2,4-benzothiadiazin-3(4H)-one 1,1-dioxide], the Ki was 2.69 nM.

For the molecule `COc1cc(F)c(CN2C(=O)N(c3cccc(S(C)(=O)=O)c3)S(=O)(=O)c3ccccc32)c(F)c1` [Example 111, 4-(2,6-Difluoro-4-methoxybenzyl)-2-[3-(methylsulfonyl)phenyl]-2H-1,2,4-benzothiadiazin-3(4H)-one 1,1-dioxide], the Ki was 2.24 nM.

With `CS(=O)(=O)c1cccc(N2C(=O)N(Cc3c(F)cc(F)cc3F)c3ccccc3S2(=O)=O)c1` [Example 112, 2-[3-(Methylsulfonyl)phenyl]-4-(2,4,6-trifluorobenzyl)-2H-1,2,4-benzothiadiazin-3(4H)-one 1,1-dioxide], the Ki is 26.9 nM.

As to `COc1cc(F)c(CN2C(=O)N(c3ccc(OC)c(OC)c3)S(=O)(=O)c3ccccc32)c(Cl)c1` [Example 113, 4-(2-Chloro-6-fluoro-4-methoxybenzyl)-2-(3,4-dimethoxyphenyl)-2H-1,2,4-benzothiadiazin-3(4H)-one 1,1-dioxide], the Ki is 0.0912 nM.

As for `Cc1cc(N2C(=O)N(Cc3c(F)cc(F)cc3F)c3ccccc3S2(=O)=O)cc(C)c1O` [Example 114, 2-(4-Hydroxy-3,5-dimethylphenyl)-4-(2,4,6-trifluorobenzyl)-2H-1,2,4-benzothiadiazin-3(4H)-one 1,1-dioxide], the Ki was 12.9 nM.

As to `COc1c(C)cc(N2C(=O)N(Cc3c(F)cc(F)cc3F)c3ccccc3S2(=O)=O)cc1C` [Example 115, 2-(4-methoxy-3,5-dimethylphenyl)-4-(2,4,6-trifluorobenzyl)-2H-1,2,4-benzothiadiazin-3(4H)-one 1,1-dioxide], the Ki was 0.355 nM.

`COc1ccc(N2C(=O)N(Cc3c(F)cc(O)cc3F)c3ccccc3S2(=O)=O)cc1OC` [Example 116, 4-(2,6-Difluoro-4-hydroxybenzyl)-2-(3,4-dimethoxyphenyl)-2H-1,2,4-benzothiadiazin-3(4H)-one 1,1-dioxide]: the Ki was 1.15 nM.

As for `O=C1N(Cc2c(F)cccc2Cl)c2ccccc2S(=O)(=O)N1CC1CCOCC1` [Example 117, 4-(2-Chloro-6-fluorobenzyl)-2-(tetrahydro-2H-pyran-4-ylmethyl)-2H-1,2,4-benzothiadiazin-3(4H)-one 1,1-dioxide], the Ki was 372 nM.

As for `CC1(CN2C(=O)N(Cc3c(F)cccc3Cl)c3ccccc3S2(=O)=O)COC1` [Example 118, 4-(2-Chloro-6-fluorobenzyl)-2-[(3-methyloxetan-3-yl)methyl]-2H-1,2,4-benzothiadiazin-3(4H)-one 1,1-dioxide], the Ki is 372 nM.

Turning to `Cc1nc(CN2C(=O)N(Cc3c(F)cccc3F)c3ccccc3S2(=O)=O)cs1` [Example 119, 4-(2,6-Difluorobenzyl)-2-[(2-methyl-1,3-thiazol-4-yl)methyl]-2H-1,2,4-benzothiadiazin-3(4H)-one 1,1-dioxide], the Ki is 66.1 nM.
